# Columns and labels:
# [1] = Therapeutic index, CC50 for human 293T cells to EC50 for G-pseudotyped HIV; format: cell-based; settings: read-out: Ratio CC50/EC50
# [2] = test system: Human immunodeficiency virus; assay: Antiviral activity against G-pseudotyped HIV expressed in 293T cells with pGI3Luci; format: functional, organism-based; settings: Human immunodeficiency virus 1, HEK-293T
# [3] = Inhibition of recombinant HIV integrase strand transfer activity; set-up: species or system Human immunodeficiency virus
SMILES,selectivity ratio [1],EC50 [2] [nM],IC50 [3] [nM]
CS(=O)(=O)c1cccc(-c2nc(-c3nnc(Cc4ccc(F)cc4)o3)c(O)c3ncccc23)c1,234,13,6
O=C1CNCCN1c1nc(-c2nnc(Cc3ccc(F)cc3)o2)c(O)c2ncccc12,58,240,38
CS(=O)(=O)c1ccc(-c2nc(-c3nnc(Cc4ccc(F)cc4)o3)c(O)c3ncccc23)cc1,301,8,9
CNC(=O)c1nc(-c2nnc(Cc3ccc(F)cc3)o2)c(O)c2ncccc12,43,150,120
Oc1c(-c2nnc(Cc3ccc(F)cc3)o2)nc(-c2cccnc2)c2cccnc12,194,36,11
Oc1c(-c2nnc(Cc3ccc(F)cc3)o2)nc(-n2cccn2)c2cccnc12,546,16,4
O=C(O)c1ccc(-c2nc(-c3nnc(Cc4ccc(F)cc4)o3)c(O)c3ncccc23)cc1,241,58,2
CC(C)NC(=O)c1cccc(-c2nc(-c3nnc(Cc4ccc(F)cc4)o3)c(O)c3ncccc23)c1,182,28,10
O=C1NCCCN1c1nc(-c2nnc(Cc3ccc(F)cc3)o2)c(O)c2ncccc12,> 250,56,11
CC(=O)Nc1cccc(-c2nc(-c3nnc(Cc4ccc(F)cc4)o3)c(O)c3ncccc23)c1,1400,10,80
CS(=O)(=O)Nc1cccc(-c2nc(-c3nnc(Cc4ccc(F)cc4)o3)c(O)c3ncccc23)c1,435,14,8
O=C(c1nc(-c2nnc(Cc3ccc(F)cc3)o2)c(O)c2ncccc12)N1CCOCC1,134,97,130
CC(C)NS(=O)(=O)c1ccc(-c2nc(-c3nnc(Cc4ccc(F)cc4)o3)c(O)c3ncccc23)cc1,118,15,4
Oc1c(-c2nnc(Cc3ccc(F)cc3)o2)nc(-c2ccccn2)c2cccnc12,40,56,30
CS(=O)(=O)Nc1ccc(-c2nc(-c3nnc(Cc4ccc(F)cc4)o3)c(O)c3ncccc23)cc1,915,9,3
O=C1N(CCO)CCN1c1nc(-c2nnc(Cc3ccc(F)cc3)o2)c(O)c2ncccc12,148,94,13
O=C1CCCN1c1nc(-c2nnc(Cc3ccc(F)cc3)o2)c(O)c2ncccc12,> 156,89,19
Nc1cccc(-c2nc(-c3nnc(Cc4ccc(F)cc4)o3)c(O)c3ncccc23)c1,546,15,15
CC(C)NC(=O)c1nc(-c2nnc(Cc3ccc(F)cc3)o2)c(O)c2ncccc12,22,98,190
N#Cc1ccc(-c2nc(-c3nnc(Cc4ccc(F)cc4)o3)c(O)c3ncccc23)cc1,72,26,15
O=C1OCCN1c1nc(-c2nnc(Cc3ccc(F)cc3)o2)c(O)c2ncccc12,> 666,21,13

# Reference: ChEMBL document CHEMBL1153288, “1,3,4-Oxadiazole substituted naphthyridines as HIV-1 integrase inhibitors. Part 2: SAR of the C5 position” (Bioorg Med Chem Lett, 2009)
